PMC4279406, “Simultaneous targeting of PI3Kδ and a PI3Kδ-dependent MEK1/2-Erk1/2 pathway for therapy in pediatric B-cell acute lymphoblastic leukemia” (Oncotarget, 2014)

Key:
[1] = system: PI3Kβ (LPA-stimulated MEF cells); experiment: LPA-induced Akt phosphorylation in MEF cells; assay type: cell-based, murine; settings: up to 0.5 μM; LPA 10 μM; 1 h pre-incubation
Protocol: In fibroblasts, signals from the insulin-like growth factor 1 (IGF-1) receptor are mediated by PI3Kα, while lysophosphatidic acid (LPA) stimulates G-protein coupled receptor (GPCR) signals via PI3Kβ[26]. After being pre-incubated with X-370, murine embryonic fibroblasts cultured in serum-free medium were stimulated with IGF-1 or LPA. […] Either PI3Kδ or PI3Kγ can be activated in THP-1 monocytes dependent on the stimulating ligand, among which macrophage colony stimulating factor (M-CSF/CSF-1) activates RTK-coupled PI3Kδ, while monocyte chemoattractant protein-1 (MCP-1) activates PI3Kγ [24]. Accordingly, THP-1 cells cultured in serum-free medium were stimulated with MCP-1 or M-CSF in the presence of X-370 and phosphorylated Akt was measured.
Cell lysates were probed with indicated antibodies. The IC50 values were calculated based on relative band intensity measured with ImageQuant™ TL (GE Healthcare Life Sciences, Piscataway, NJ) (B). Data shown are mean values from three independent experiments. (C, D, E, F) X-370 blocked stimuli-triggered PI3Kδ activation. MEF cells and THP-1 were starved in serum-free medium for 12 h or 4 h respectively and X-370 were added for an additional 1 h treatment following stimulation of IGF-1 at 100 ng/ml for MEF cells (C), LPA at 10 μM for MEF cells (D), MCP-1 at 100ng/ml for THP-1 (E) and M-CSF at 50 ng/ml for THP-1 (F). […]

PI3Kδ = PI3Kδ (Homo sapiens, UniProt O00329); experiment: Kinase Profiler lipid kinase IC50; assay type: biochemical; set-up: purchased Millipore (Kinase Profiler Services, United Kingdom); settings: ATP at Km of the isoform; 10-point half-log dilution from 1000 nM
Chain of PI3Kδ (O00329 whole entry, canonical isoform): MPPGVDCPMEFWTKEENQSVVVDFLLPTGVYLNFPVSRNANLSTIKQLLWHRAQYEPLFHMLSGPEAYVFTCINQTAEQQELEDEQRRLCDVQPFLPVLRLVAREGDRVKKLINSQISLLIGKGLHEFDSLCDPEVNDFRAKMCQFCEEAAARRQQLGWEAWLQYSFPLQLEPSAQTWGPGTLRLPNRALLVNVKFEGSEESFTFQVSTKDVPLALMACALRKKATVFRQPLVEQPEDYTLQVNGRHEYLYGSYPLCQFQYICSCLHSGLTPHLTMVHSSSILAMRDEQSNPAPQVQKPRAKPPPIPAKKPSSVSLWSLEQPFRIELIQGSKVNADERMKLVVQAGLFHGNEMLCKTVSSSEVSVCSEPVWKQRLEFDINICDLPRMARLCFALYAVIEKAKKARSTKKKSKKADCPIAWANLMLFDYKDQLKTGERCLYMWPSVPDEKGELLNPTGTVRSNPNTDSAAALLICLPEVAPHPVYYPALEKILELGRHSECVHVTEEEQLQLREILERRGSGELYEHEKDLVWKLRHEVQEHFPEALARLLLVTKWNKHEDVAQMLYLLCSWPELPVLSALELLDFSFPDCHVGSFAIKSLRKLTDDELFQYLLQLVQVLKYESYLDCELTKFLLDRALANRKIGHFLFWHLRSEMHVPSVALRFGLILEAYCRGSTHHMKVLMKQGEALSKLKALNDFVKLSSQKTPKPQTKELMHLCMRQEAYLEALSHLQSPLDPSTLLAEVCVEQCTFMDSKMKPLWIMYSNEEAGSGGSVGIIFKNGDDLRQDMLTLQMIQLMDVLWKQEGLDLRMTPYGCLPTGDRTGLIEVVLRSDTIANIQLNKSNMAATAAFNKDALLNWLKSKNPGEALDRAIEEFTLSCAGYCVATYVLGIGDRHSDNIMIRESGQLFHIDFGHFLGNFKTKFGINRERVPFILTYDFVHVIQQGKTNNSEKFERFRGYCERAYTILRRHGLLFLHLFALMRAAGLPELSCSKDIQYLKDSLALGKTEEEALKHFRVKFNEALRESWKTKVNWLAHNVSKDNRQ
Chain of PI3Kδ (P27986 whole entry partner, canonical isoform): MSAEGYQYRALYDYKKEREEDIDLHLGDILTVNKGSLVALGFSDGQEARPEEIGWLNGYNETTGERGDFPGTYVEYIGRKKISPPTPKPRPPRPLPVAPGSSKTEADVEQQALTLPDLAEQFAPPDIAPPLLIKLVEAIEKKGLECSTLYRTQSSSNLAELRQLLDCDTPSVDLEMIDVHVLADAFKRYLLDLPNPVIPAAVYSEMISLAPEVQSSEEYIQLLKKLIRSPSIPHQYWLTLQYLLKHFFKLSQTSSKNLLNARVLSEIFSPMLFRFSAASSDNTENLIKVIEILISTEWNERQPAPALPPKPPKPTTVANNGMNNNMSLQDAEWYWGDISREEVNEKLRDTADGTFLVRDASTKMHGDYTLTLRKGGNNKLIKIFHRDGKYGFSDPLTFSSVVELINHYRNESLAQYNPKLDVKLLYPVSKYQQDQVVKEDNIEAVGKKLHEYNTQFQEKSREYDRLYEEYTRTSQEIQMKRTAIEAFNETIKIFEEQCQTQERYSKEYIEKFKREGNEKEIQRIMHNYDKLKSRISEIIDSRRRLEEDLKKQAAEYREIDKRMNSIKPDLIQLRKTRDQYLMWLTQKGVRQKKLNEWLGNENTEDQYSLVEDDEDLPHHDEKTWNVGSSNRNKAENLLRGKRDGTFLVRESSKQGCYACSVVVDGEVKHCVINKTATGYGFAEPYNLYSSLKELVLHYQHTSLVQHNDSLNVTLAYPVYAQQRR
Protocol: Figure 1 Structure of X-370 and its inhibitory activity against lipid kinases (A) Chemical structure of X-370. (B) X-370 docked to the crystal structure of PI3Kδ. The model was generated based on the co-crystal structure of PI3Kδ and ZSTK474 (PDB ID: 2WXL). (C) IC50 of X-370 against PI3Kδ increased along with ATP concentration. […] Data was obtained from Kinase Profiler Services (Millipore, United Kingdom). Briefly, X-370 was solved in DMSO at a concentration of 10 mM, 10-point kinase inhibitory activity was measured over concentrations in a half-log dilution series started at 1000 nM with ATP at a concentration consistent with Km of each isoform of class I PI3K and IC50s were calculated. Relative kinase activity in the presence of 10 μM X-370 compared to DMSO control was measured for the rest of lipid kinases. […]
In vitro kinase profile assays were analyzed by the Kinase Profiler Service (Millipore, United Kingdom) following its guidelines. […] The PI3K kinase activity was determined in the increasing concentration of ATP and X-370 with PI3-Kinase HTRF™ Assay kit (Millipore) as described previously.

With `O=C(N1CCCC1)N1CCC(n2cnc3c(-n4c(C(F)F)nc5ccccc54)nc(N4CCOCC4)nc32)CC1` [X-370] the “LPA-induced Akt phosphorylation” value [1] was “partially inhibited” and the IC50 (PI3Kδ) was 7 nM.
